Measurements as given in patent US8192962B2, “Processes for detecting toxic substances” (Daikin Industries, Ltd., priority 2001, dated 2012).

Tested on: Detoxification protein genes
Assay: DNA chip mRNA expression in yeast, detoxification protein genes (Table 8)
Type: cell-based, Saccharomyces cerevisiae S288C
Procedure, shortened: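 Whole-genome yeast DNA chip hybridization (65° C., >12 h) of Cy-labeled cDNA from S288C cells exposed 2 h at 25° C. to a sub-lethal toxicant dose in YPD; value is intensity relative to chemical-free control.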

S=C([S-])NCCNC(=S)[S-].[Zn+2] [(11), zinc N,N′-ethylenebis(dithiocarbamate)]
The level of expressed mRNA in the presence of chemical substance/The level of expressed mRNA in the absence of chemical substance (yeast gene YBL064C): 2.9 | The level of expressed mRNA in the presence of chemical substance/The level of expressed mRNA in the absence of chemical substance (yeast gene YBR008C): 9.4 | The level of expressed mRNA in the presence of chemical substance/The level of expressed mRNA in the absence of chemical substance (yeast gene YBR145W): 1.1 | The level of expressed mRNA in the presence of chemical substance/The level of expressed mRNA in the absence of chemical substance (yeast gene YBR244W): 1.5 | The level of expressed mRNA in the presence of chemical substance/The level of expressed mRNA in the absence of chemical substance (yeast gene YBR293W): 1.1 | The level of expressed mRNA in the presence of chemical substance/The level of expressed mRNA in the absence of chemical substance (yeast gene YCL035C): 2.1 | The level of expressed mRNA in the presence of chemical substance/The level of expressed mRNA in the absence of chemical substance (yeast gene YCL069W): 1.0 | The level of expressed mRNA in the presence of chemical substance/The level of expressed mRNA in the absence of chemical substance (yeast gene YCR083W): 1.8 | The level of expressed mRNA in the presence of chemical substance/The level of expressed mRNA in the absence of chemical substance (yeast gene YDL100C): 2.8 | The level of expressed mRNA in the presence of chemical substance/The level of expressed mRNA in the absence of chemical substance (yeast gene YDL168W): 1.9 | The level of expressed mRNA in the presence of chemical substance/The level of expressed mRNA in the absence of chemical substance (yeast gene YDR256C): 1.4 | The level of expressed mRNA in the presence of chemical substance/The level of expressed mRNA in the absence of chemical substance (yeast gene YDR453C): 2.3 | The level of expressed mRNA in the presence of chemical substance/The level of expressed mRNA in the absence of chemical substance (yeast gene YDR513W): 2.0 | The level of expressed mRNA in the presence of chemical substance/The level of expressed mRNA in the absence of chemical substance (yeast gene YDR538W): 0.9 | The level of expressed mRNA in the presence of chemical substance/The level of expressed mRNA in the absence of chemical substance (yeast gene YEL027W): 0.9 | The level of expressed mRNA in the presence of chemical substance/The level of expressed mRNA in the absence of chemical substance (yeast gene YEL065W): 0.6 | The level of expressed mRNA in the presence of chemical substance/The level of expressed mRNA in the absence of chemical substance (yeast gene YER185W): 1.6 | The level of expressed mRNA in the presence of chemical substance/The level of expressed mRNA in the absence of chemical substance (yeast gene YFL050C): 1.2 | The level of expressed mRNA in the presence of chemical substance/The level of expressed mRNA in the absence of chemical substance (yeast gene YGL013C): 0.9 | The level of expressed mRNA in the presence of chemical substance/The level of expressed mRNA in the absence of chemical substance (yeast gene YGL254W): 1.1 | The level of expressed mRNA in the presence of chemical substance/The level of expressed mRNA in the absence of chemical substance (yeast gene YGR088W): 3.9 | The level of expressed mRNA in the presence of chemical substance/The level of expressed mRNA in the absence of chemical substance (yeast gene YGR138C): 0.7 | The level of expressed mRNA in the presence of chemical substance/The level of expressed mRNA in the absence of chemical substance (yeast gene YGR197C): 1.1 | The level of expressed mRNA in the presence of chemical substance/The level of expressed mRNA in the absence of chemical substance (yeast gene YGR209C): 3.1 | The level of expressed mRNA in the presence of chemical substance/The level of expressed mRNA in the absence of chemical substance (yeast gene YGR224W): 0.8 | The level of expressed mRNA in the presence of chemical substance/The level of expressed mRNA in the absence of chemical substance (yeast gene YHL040C): 1.7 | The level of expressed mRNA in the presence of chemical substance/The level of expressed mRNA in the absence of chemical substance (yeast gene YHL047C): 1.0 | The level of expressed mRNA in the presence of chemical substance/The level of expressed mRNA in the absence of chemical substance (yeast gene YHR008C): 2.1 | The level of expressed mRNA in the presence of chemical substance/The level of expressed mRNA in the absence of chemical substance (yeast gene YHR048W): 2.0 | The level of expressed mRNA in the presence of chemical substance/The level of expressed mRNA in the absence of chemical substance (yeast gene YHR053C): 1.4 | The level of expressed mRNA in the presence of chemical substance/The level of expressed mRNA in the absence of chemical substance (yeast gene YHR055C): 1.8 | The level of expressed mRNA in the presence of chemical substance/The level of expressed mRNA in the absence of chemical substance (yeast gene YIR002C): 0.8 | The level of expressed mRNA in the presence of chemical substance/The level of expressed mRNA in the absence of chemical substance (yeast gene YIR038C): 3.4 | The level of expressed mRNA in the presence of chemical substance/The level of expressed mRNA in the absence of chemical substance (yeast gene YJL101C): 2.7 | The level of expressed mRNA in the presence of chemical substance/The level of expressed mRNA in the absence of chemical substance (yeast gene YJR104C): 2.6 | The level of expressed mRNA in the presence of chemical substance/The level of expressed mRNA in the absence of chemical substance (yeast gene YKL026C): 3.0 | The level of expressed mRNA in the presence of chemical substance/The level of expressed mRNA in the absence of chemical substance (yeast gene YKL064W): 0.7 | The level of expressed mRNA in the presence of chemical substance/The level of expressed mRNA in the absence of chemical substance (yeast gene YKR066C): 1.3 | The level of expressed mRNA in the presence of chemical substance/The level of expressed mRNA in the absence of chemical substance (yeast gene YKR105C): 0.0 | The level of expressed mRNA in the presence of chemical substance/The level of expressed mRNA in the absence of chemical substance (yeast gene YKR106W): 1.8 | The level of expressed mRNA in the presence of chemical substance/The level of expressed mRNA in the absence of chemical substance (yeast gene YLL028W): 0.7 | The level of expressed mRNA in the presence of chemical substance/The level of expressed mRNA in the absence of chemical substance (yeast gene YLL057C): 1.3 | The level of expressed mRNA in the presence of chemical substance/The level of expressed mRNA in the absence of chemical substance (yeast gene YLL060C): 14.1 | The level of expressed mRNA in the presence of chemical substance/The level of expressed mRNA in the absence of chemical substance (yeast gene YLR043C): 1.4 | The level of expressed mRNA in the presence of chemical substance/The level of expressed mRNA in the absence of chemical substance (yeast gene YLR046C): 0.9 | The level of expressed mRNA in the presence of chemical substance/The level of expressed mRNA in the absence of chemical substance (yeast gene YML028W): 1.0 | The level of expressed mRNA in the presence of chemical substance/The level of expressed mRNA in the absence of chemical substance (yeast gene YML116W): 4.3 | The level of expressed mRNA in the presence of chemical substance/The level of expressed mRNA in the absence of chemical substance (yeast gene YMR015C): 1.0 | The level of expressed mRNA in the presence of chemical substance/The level of expressed mRNA in the absence of chemical substance (yeast gene YMR038C): 2.7 | The level of expressed mRNA in the presence of chemical substance/The level of expressed mRNA in the absence of chemical substance (yeast gene YNL239W): 1.9 | The level of expressed mRNA in the presence of chemical substance/The level of expressed mRNA in the absence of chemical substance (yeast gene YNL241C): 3.0 | The level of expressed mRNA in the presence of chemical substance/The level of expressed mRNA in the absence of chemical substance (yeast gene YNL259C): 1.6 | The level of expressed mRNA in the presence of chemical substance/The level of expressed mRNA in the absence of chemical substance (yeast gene YOL158C): 0.7 | The level of expressed mRNA in the presence of chemical substance/The level of expressed mRNA in the absence of chemical substance (yeast gene YOR031W): 1.2 | The level of expressed mRNA in the presence of chemical substance/The level of expressed mRNA in the absence of chemical substance (yeast gene YOR153W): 1.0 | The level of expressed mRNA in the presence of chemical substance/The level of expressed mRNA in the absence of chemical substance (yeast gene YOR247W): 2.9 | The level of expressed mRNA in the presence of chemical substance/The level of expressed mRNA in the absence of chemical substance (yeast gene YOR251C): 1.0 | The level of expressed mRNA in the presence of chemical substance/The level of expressed mRNA in the absence of chemical substance (yeast gene YOR273C): 1.5 | The level of expressed mRNA in the presence of chemical substance/The level of expressed mRNA in the absence of chemical substance (yeast gene YPL163C): 0.5 | The level of expressed mRNA in the presence of chemical substance/The level of expressed mRNA in the absence of chemical substance (yeast gene YPR200C): 2.0
